Results as given in patent US10273218B2, “BCL-3 inhibitors” (University College Cardiff Consultants Limited, priority 2014, dated 2019).

Columns and labels:
[1] = test system: MDA-MB-231-Luc highly metastatic human breast cancer cells; experiment: in vivo metastasis mouse model, disease free survival; design: species or system Nude mice; conditions: 3.5 mg/Kg once daily for 10 days; MDA-MB-231-Luc i.v.; monitored up to 49 days
Method: Nude mice are injected i.v. with 200,000 highly metastatic human breast cancer cells expressing luciferase (MDA-MB-231-Luc) then are given a compound of Formula (I) or Formula (Ia) once daily for about 10 days and are monitored for tumours by total body scan using Xenogen-IVIS. Mice with a luciferase signal above background in repeated scans in any part of their torso are scored as having metastatic disease. Total light emission in the abdominal region is quantified at time points up to 49 days post surgery and plotted as mean total light yield.
Nude mice were injected i.v. with 200,000 highly metastatic human breast cancer cells expressing luciferase (MDA-MB-231-Luc) then given 3.5 mg/Kg of compound 12, reference compound A, or Reference compound B once daily for 10 days and monitored for tumours by total body scan using Xenogen-IVIS. Mice with a luciferase signal above background in repeated scans in any part of their torso were scored as having metastatic disease. Total light emission in abdominal region was quantified at time points up to 49 days post surgery and plotted as mean total light yield. Control n=12, Reference compound A n=10, Reference compound B n=4; compound 12 n=4.

[2] = test system: human breast cancer MDA-MB-231 xenograft; experiment: in vivo metastasis mouse Model 1 (seeding and early colonization of circulating tumour cells); design: species or system mice; conditions: 3.5 mg/kg intraperitoneally daily; MDA-MB-231
Method: (§1) In all experiments, each compound was administered by intraperitoneally at 3.5 mg/kg.
(§2) One model (Model 1) studied the effect of the compound's ability to inhibit the seeding and early colonization of circulating tumour cells at distal sites, most commonly in the lungs and liver. Human tumour cell lines were injected into the bloodstream of recipient mice, followed by single daily intraperitoneal injections of the compound (3.5 mg/kg in 1% DMSO) for 10 consecutive days. Tumour burden was monitored longitudinally for up to 8 weeks in vivo by live luminescence imaging, and subsequently histology performed on affected organs at the end of the experiment.
as §2, with “Model 1 tested” for “One model (Model 1) studied”, “Bcl3i compounds” for “the compound's ability”, “Bcl3 inhibitor” for “the compound”
The X axis represents the number of days after xenograft and the Y axis is the relative luminescence of the thoracic region by Xenon IVIS scanning of mice following injection of d-luciferin for 10 minutes.
(§3) MDA-MB-231 human breast cancer cells were used in each of the three xenograft models of metastatic breast cancer.

[3] = test system: human breast cancer (MDA-MB-231); experiment: mouse Model 4 (tumour growth at transplantation site), MDA-MB-231; format: in vivo, mice; conditions: 3.5 mg/kg intraperitoneal injection daily; MDA-MB-231 subcutaneous; caliper tumour volume; listed as compound 12
Method: as §1
(§4) Another model (Model 4) studied the effect of the compound's ability to inhibit the growth of tumour cells at the transplantation site. Human tumour cell lines were injected subcutaneously into recipient mice, followed 2 days later by single daily intraperitoneal injections of a compound (3.5 mg/kg in 1% DMSO) for the entire course of the experiment. Tumour burden was monitored longitudinally for up to 12 weeks in vivo by palpation and caliper measurements of tumour volume, and subsequently histology performed on tumours at the end of the experiment.
(§5) Model 4 tested the effect of compounds of the application to inhibit the growth of tumour cells at the transplantation site. Human tumour cell lines were injected subcutaneously into recipient mice, followed 2 days later by single daily intraperitoneal injections of Bcl3 inhibitor (3.5 mg/kg in 1% DMSO) for the entire course of the experiment. Tumour burden was monitored longitudinally for up to 12 weeks in vivo by palpation and caliper measurements of tumour volume, and subsequently histology performed on tumours at the end of the experiment.
FIGS. 6 and 7 show the comparative effect of compound 12 (3.5 mg/kg intraperitoneal injection) on Model 4 in human breast cancer (MDA-MB-231) and human colorectal cell lines (SW480), respectively. […]

[4] = test system: human colorectal cell lines (SW480); experiment: mouse Model 4 (tumour growth at transplantation site), SW480; format: in vivo, mice; conditions: 3.5 mg/kg intraperitoneal injection daily; SW480 subcutaneous; caliper tumour volume
Method: as §1, §4, §5
FIGS. 6 and 7 show the comparative effect of compound 12 (3.5 mg/kg intraperitoneal injection) on Model 4 in human breast cancer (MDA-MB-231) and human colorectal cell lines (SW480), respectively.

[5] = test system: MDA-MB-231 human breast cancer cells; experiment: mouse Model 2 (colonization, growth and spread of secondary lesions at distal sites); format: in vivo, mice; conditions: 3.5 mg/kg intraperitoneally daily
Method: as §1
Another model (Model 2) tested the effect of the compound's ability to inhibit the colonization and subsequent growth and spread of secondary lesions at distal sites. Human tumour cell lines were injected into the bloodstream of recipient mice, followed 2 days later by single daily intraperitoneal injections of the compound (3.5 mg/kg in 1% DMSO) for the entire course of the experiment. Tumour burden was monitored longitudinally for up to 8 weeks in vivo by live luminescence imaging, and subsequently histology performed on affected organs at the end of the experiment.
as §3

[6] = test system: MDA-MB-436 cells (triple negative breast invasive ductal carcinoma); experiment: mouse Model 4 (tumour growth at transplantation site), MDA-MB-436; format: in vivo, mice; conditions: 3.5 mg/kg in 1% DMSO intraperitoneal daily; MDA-MB-436 subcutaneous; caliper tumour volume
Method: as §4
as §5, with “MDA-MB-436 cells” for “Human tumour cell lines”, “compound 12” for “Bcl3 inhibitor”

COc1ccc(C(=O)Nc2ccccc2C(=O)NCCN2CCOCC2)c(F)c1 [Compound 12, 2-fluoro-4-methoxy-N-(2-((2-morpholinoethyl)carbamoyl)phenyl) benzamide]
disease free survival [1]: 100%
effect on tumour cell seeding at distal sites (FIG. 8) [2]: most profound effect
tumour growth at the transplantation (xenograft) site [3]: significant reductions in average tumour growth
average tumour growth at the transplantation site [4]: significant reductions in average tumour growth
effect on subsequent growth and spread of the secondary tumours (FIG. 9) [5]: significant effects
average tumour growth at the transplantation site [6]: significant reductions in average tumour growth
